Laboratory results taken from patent US10105323B2, “Pharmaceutical dosage form for immediate release of an indolinone derivative” (Boehringer Ingelheim International GmbH, priority 2008, dated 2018).
Like-named read-outs stand apart in the source and are kept apart here.

Columns and labels:
[1] = Phase I trials in cancer patients, dose proportionality of plasma exposure; assay type: in vivo, human; conditions: single dose and steady state, qd and bid dosing, visual inspection
Excerpt: However, in three Phase I trials in cancer patients with various advanced solid tumors there was no sign for a deviation from a dose proportional increase in AUC and Cmax of the active substance observed through visual inspection neither after single dose nor at steady state for once and twice daily dosing (FIGS. 9 and 10). […] There was no deviation from dose-proportionality observed for drug plasma concentrations measured before drug administration at steady state (Cpre,ss) in cancer patients in various clinical trials, found through visual inspection.

[2] = Phase 2 monotherapy trials in NSCLC or HRPC patients, pre-dose plasma concentrations; assay type: in vivo, human; conditions: 150 and 250 mg twice daily, soft gelatin capsule
[3] = Stress, long-term and accelerated stability studies of soft gelatin capsule systems; assay type: physicochemical; conditions: 1 month at 70° C., long-term (3 years), accelerated (6 months)
Excerpt: An advantage of such soft gelatin capsule containing a lipid suspension is that the water uptake into the formulation is very unlikely. The dosage form is divided into three different compartments, namely (a) a hydrophilic capsule shell and (b) the hydrophobic carrier system in which (c) the slightly hygroscopic powder of active substance is suspended. Due to ambient moisture the content of water may vary within these different compartments. It will migrate by diffusion until an equilibrium state is reached. The water content may affect different properties of the drug product, such as the chemical stability of the active substance (predominantly via hydrolysis), the dissolution of the active substance, or the elasticity of the capsule shell. The water uptake in the present system is primarily in the capsule shell. This can be shown by water vapour sorption experiments as well as by the correlation of the mass gain with the softening of the capsule (shown in FIG. 1). […] This is confirmed by the stress stability studies of, for example, 1 month at 70° C., and by long-term (3 years) and accelerated (6 months) stability study results for the systems in accordance with the present invention.

[4] = human, in vivo

gMean AUCτ,ss versus dose [1]: increased in a dose-proportional manner | gMean Cmax,ss versus dose [1]: increased in a dose-proportional manner | effect of water uptake on chemical stability [3]: not affect the chemical stability | time to reach maximum plasma concentration (median value) [4]: 2 h | time to reach maximum plasma concentration (range) [4]: 0.75 to 6 h | plasma concentration of the active substance at maximum (gMean value) ([4]; 150 mg): about 9 ng/mL | plasma concentration as % of the maximum plasma concentration ([4]; 24 h): about 15% | plasma concentration as % of the maximum plasma concentration ([4]; 48 h): 7-8%
SMILES: COC(=O)c1ccc2c(c1)NC(=O)/C2=C(\Nc1ccc(N(C)C(=O)CN2CCN(C)CC2)cc1)c1ccccc1 [active substance, 3-Z-[1-(4-(N-((4-methyl-piperazin-1-yl)-methylcarbonyl)-N-methyl-amino)-anilino)-1-phenyl-methylene]-6-methoxycarbonyl-2-indolinone-monoethanesulphonate]
pre-dose plasma concentrations at steady state versus dose [2]: no obvious deviation from a dose proportional increase
